Experiments:
C5 convertase = C5 convertase activity on bio-C3b spheres, C5a measured with ECL assay; type: biochemical; conditions: for ECL signal (amount of C5a produced by C5 convertase): C5 100 nM, 60 min
Experimental: The bio-C3b binding to streptavidin was performed in a 2.0 ml micro-centrifuge tube. Two hundred and forty μg of SPHEROTECH beads, 0.3 mm diameter. Streptavidin coated spheres were first washed by centrifugation with 300 μL of 10 mM Tris, pH 8, and then resuspended in 200 μL of 10 mM Tris, pH 8. The spheres were incubated with bio-C3b or C3b at a concentration of 320 nM. Spheres were suspended by gentle shaking at 1350 RPM for 20 minutes at room temperature, and collected by centrifugation at 16 RCF for 10 minutes. The residual supernatant was removed and the beads were then washed to remove residual unbound bio-C3b.
C5 convertase was formed on the spheres by incubating the bio-C3b spheres with a Convertase Solution that included components of the AP, a divalent cation and buffer. The Convertase Solution consisted of Factor D, (10 nM), Factor B (400 nM), and NiCl2 (200 μM) in 10 mM Tris, pH 8.0. The spheres were suspended by gentle shaking at 1350 RPM for 20 minutes at 37° C. The spheres were centrifuged at 16×g (RCF) for 10 minutes, the supernatant is removed, and the spheres are resuspended in 1.2 ml of 10 mM Tris pH 8, 1 mM EDTA to a final concentration of 200 μg/ml.
Formation of C5a was accomplished by incubating C5, and the spheres in a Reaction Solution that included a divalent cation. The Reaction Solution was prepared by transferring to a microplate well: (i) 2 μg of spheres with C5 convertase in 10 μl of the Convertase Solution; (ii) 20 μL of a 500 μM NiCl2 solution; and (iii) 20 μL of a 250 nM solution of C5 (5 pmoles). […] Following the incubation, the reaction was stopped by adding 10 μL of a 500 mM EDTA in 10 mM Tris, pH=8.0; (Total Volume=60 μl).
The amount of C5a in the Reaction Solution was measured with an Elisa-like assay, similar to an ELISA. The neo-epitope anti-C5a antibody, BNJ383, captured soluble C5a, binding it to a well in a microplate. BNJN383 has a high affinity for C5a but a low affinity for C5. The detection reagent was a mouse anti-C5a antibody that binds the C5a captured on the plate, and a SULFO-TAG™ modified anti-mouse secondary antibody that bound the mouse antibody, and generated an ECL signal.
To wells of a high binding 96-well microplate (MSD Catalog No. L15XB-3) was added BNJ383 (0.3 pmoles,) 2 μg/mL in 25 μL of a carbonate-bicarbonate buffer at pH 9.4. The microplate was sealed and incubated at 37′C for 60 minutes. […]
The wells were sealed with a foil seal and incubated in the dark for 30 minutes. […] One hundred and fifty μL of 2×MSD Read Buffer containing tripropylamine as an electron carrier was added to the wells using a negative pipetting technique. The microplate was read on an MSD imager to measure the ECL signal generated by the SULFO-TAG™ affixed to the goat secondary antibody. […]

Factor D = biological target: T1, Factor D (Homo sapiens, UniProt P00746); experiment: BLI biosensor assay of Factor D cleavage of Factor B, anti-Bb antibody binding; type: biochemical
T1 construct: purchased COMPTECH (Tyler Tex.)
T1 sequence (P00746 26-253): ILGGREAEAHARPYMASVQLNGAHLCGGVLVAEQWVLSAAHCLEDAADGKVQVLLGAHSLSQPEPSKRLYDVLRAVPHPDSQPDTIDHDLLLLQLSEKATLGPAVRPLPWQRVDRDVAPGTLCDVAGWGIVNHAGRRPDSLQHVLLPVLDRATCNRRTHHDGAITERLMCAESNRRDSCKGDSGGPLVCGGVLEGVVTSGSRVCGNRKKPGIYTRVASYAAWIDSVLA
Experimental: All measurements were recorded on an OCTET® RED System set to the advanced quantitation mode. The biosensors were SA-Streptavidin DIP AND READ™ configured to a 96-well microplate format (FORTEBIO). All loading volumes were 200 μl.
Eight streptavidin-coated biosensors were incubated with bio-C3b (10 μg/ml), and Factor B (0.6 μM) in Kinetics Buffer with 1 mM NiCl2 for 6 minutes.
To form bio-C3b/Bb, each biosensor was loaded with a mixture of BioC3b (10 μg/mL), factor B (600 nM) and Ni^2+ (1 mM) in Kinetics Buffer. […] The incubation time was 2 minutes.
The presence of Bb on the biosensor was detected by loading the biosensors with 55 nM of an anti-Bb antibody (Quidel, A227) and 55 nM Goat anti-mouse secondary antibody in Kinetics Buffer. The incubation time was 2 minutes.
From time 0 to about 360 seconds (˜6 minutes), the 269 kDa bio-C3b/Factor B complex formed on the streptavidin coated biosensor. […] From about 360 to about 480 seconds (˜2 minutes), Factor D cleaved Factor B into fragments Ba and Bb. […] The binding of the 300 kDa primary and secondary antibody complex to the Bb fragment was recorded as a positive wavelength shift from about 600 to 720 seconds (˜2 minutes).

Row | Molecule | Effect on convertase activity (in words) (C5 convertase; OmCI 50 nM) | ECL signal (amount of C5a produced by C5 convertase) (C5 convertase; OmCI 50 nM) | drop of ECL signal (C5 convertase; OmCI 100 nM) | ECL signal (amount of C5a produced by C5 convertase) (C5 convertase; OmCI 100 nM) | Effect on Factor D activity (in words) (Factor D; DCIC 23 μM and 35 μM) | Inhibition of Factor D (in words) (Factor D; DCIC 178 μM, 267 μM and 400 μM)
1 | OmCI: tick saliva complement inhibitor, a C5 binding protein | essentially no effect | 40,000 | 8 fold | 5000 |  | 
2 | O=c1oc(Cl)c(Cl)c2ccccc12 [DCIC, 3,4-Dichloroisocoumarin] |  |  |  |  | minimal effect | maximally inhibited
